How the values were obtained:
SIRT1 [1] = target: T1, SIRT1 (Homo sapiens, UniProt Q96EB6); assay: Trp mass spectrometry assay of SIRT1 deacetylase activation; assay type: biochemical; conditions: Trp peptide substrate; for TRP EC1.5 (μM): concentration that results in 150% activation of SIRT1; for TRP % Fold Act: percent maximum fold activation relative to control (100%)
T1 sequence (Q96EB6 1-747): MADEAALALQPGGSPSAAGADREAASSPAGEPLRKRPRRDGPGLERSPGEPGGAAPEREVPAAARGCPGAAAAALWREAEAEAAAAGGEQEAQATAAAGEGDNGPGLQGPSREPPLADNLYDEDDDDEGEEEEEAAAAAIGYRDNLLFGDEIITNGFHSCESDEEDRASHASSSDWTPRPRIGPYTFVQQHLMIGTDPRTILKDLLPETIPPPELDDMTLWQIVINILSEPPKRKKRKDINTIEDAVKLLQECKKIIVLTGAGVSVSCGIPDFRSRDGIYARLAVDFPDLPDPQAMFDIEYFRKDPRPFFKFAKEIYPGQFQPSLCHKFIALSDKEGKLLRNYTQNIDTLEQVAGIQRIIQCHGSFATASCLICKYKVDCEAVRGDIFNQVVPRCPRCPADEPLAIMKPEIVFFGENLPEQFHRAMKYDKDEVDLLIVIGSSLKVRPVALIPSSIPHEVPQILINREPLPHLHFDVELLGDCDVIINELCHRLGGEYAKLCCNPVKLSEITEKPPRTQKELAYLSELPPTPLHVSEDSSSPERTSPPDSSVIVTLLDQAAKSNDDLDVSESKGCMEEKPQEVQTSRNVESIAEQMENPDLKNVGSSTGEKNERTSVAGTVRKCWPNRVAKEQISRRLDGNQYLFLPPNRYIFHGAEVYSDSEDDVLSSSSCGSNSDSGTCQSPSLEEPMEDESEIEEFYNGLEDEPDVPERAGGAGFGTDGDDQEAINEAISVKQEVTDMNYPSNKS
Method in brief: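 His-tagged human SIRT1 (E. coli-expressed, 10 nM) was incubated with 0.5 μM Ac-RHKK(Ac)W-NH2 peptide and 120 μM βNAD+ for 25 min at 25 °C in HEPES pH 7.5, 1500 mM NaCl, with varying compound; formic acid quench. OAADPR or deacetylated peptide was quantified by mass spectrometry against DMSO control. EC1.5 (150% activation) and percent maximum activation were derived.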

SIRT1 [2] = target: T1, SIRT1; assay: TAMRA based mass spectrometry assay of SIRT1 deacetylase activation; assay type: biochemical; conditions: TAMRA peptide substrate; for TAMRA EC1.5 (μM): concentration that results in 150% activation of SIRT1; for TAMRA % Fold Act: percent maximum fold activation relative to control (100%)
Method in brief: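 E. coli-expressed N-terminal His-tagged human SIRT1 (10 nM) was incubated 25 min at 25 °C, pH 8 Tris-acetate buffer, with 0.5 μM TAMRA-labelled p53-derived acetyl-peptide, 120 μM NAD+ and varying compound; formic acid stop, mass-spec quantitation of deacetylated product vs DMSO controls. EC1.5 = concentration giving 150% activation.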

Structure (SMILES) | TRP EC1.5 (μM) (SIRT1 [1]) | TRP % Fold Act (SIRT1 [1]) | TAMRA EC1.5 (μM) (SIRT1 [2]) | TAMRA % Fold Act (SIRT1 [2])
O=C(Nc1ccnc2cc(-c3ccccc3C(F)(F)F)nn12)c1cccnc1 [Compound 103] | C (EC1.5>25 μM) | B (Fold Activation<350%) | B (EC1.5 1−25 μM) | B (Fold Activation<350%)
O=C(Nc1cnccn1)c1ccnc2cc(-c3cccc(C(F)(F)F)c3)nn12 [Compound 102] | C (EC1.5>25 μM) | B (Fold Activation<350%) | C (EC1.5>25 μM) | B (Fold Activation<350%)
Cc1ccnc(C(=O)Nc2ccnc3cc(-c4ccccc4C(F)(F)F)nn23)c1 [Compound 105] | C (EC1.5>25 μM) | B (Fold Activation<350%) | A (EC1.5<1 μM) | A (Fold activation≧350%)
Cc1cnc(NC(=O)c2ccnc3cc(-c4ccccc4C(F)(F)F)nn23)s1 [Compound 80] | C (EC1.5>25 μM) | B (Fold Activation<350%) | B (EC1.5 1−25 μM) | B (Fold Activation<350%)
O=C(Nc1cccnc1)c1cc(N2CCOCC2)nn2cc(-c3ccccc3C(F)(F)F)nc12 [Compound 45] | B (EC1.5 1−25 μM) | B (Fold Activation<350%) | B (EC1.5 1−25 μM) | A (Fold activation≧350%)
O=C(Nc1ccccn1)c1cc(N2CCOCC2)nn2cc(-c3ccccc3C(F)(F)F)nc12 [Compound 44] | C (EC1.5>25 μM) | B (Fold Activation<350%) | B (EC1.5 1−25 μM) | B (Fold Activation<350%)
O=C(Nc1ccnc2cc(-c3ccccc3C(F)(F)F)nn12)c1cccc(N2CCOCC2)n1 [Compound 63] | C (EC1.5>25 μM) | B (Fold Activation<350%) | A (EC1.5<1 μM) | B (Fold Activation<350%)
Cc1cnc(C(=O)Nc2ccnc3cc(-c4ccccc4C(F)(F)F)nn23)s1 [Compound 58] | C (EC1.5>25 μM) | B (Fold Activation<350%) | C (EC1.5>25 μM) | B (Fold Activation<350%)
O=C(Nc1ccccn1)c1cc(N2CCOCC2)nn2cc(-c3ccccc3F)nc12 [Compound 39] | C (EC1.5>25 μM) | B (Fold Activation<350%) | C (EC1.5>25 μM) | B (Fold Activation<350%)
O=C(Nc1ccnc2cc(-c3cccc(C(F)(F)F)c3)nn12)c1cscn1 [Compound 66] | C (EC1.5>25 μM) | B (Fold Activation<350%) | C (EC1.5>25 μM) | B (Fold Activation<350%)
O=C(Nc1ccnc2cc(-c3ccccc3C(F)(F)F)nn12)c1cccc(OCC(O)CO)n1 (stereo not drawn) [Compound 65] | A (EC1.5<1 μM) | A (Fold activation≧350%) | A (EC1.5<1 μM) | A (Fold activation≧350%)
O=C(Nc1ccncc1)c1ccnc2cc(-c3cccc(C(F)(F)F)c3)nn12 [Compound 86] | C (EC1.5>25 μM) | B (Fold Activation<350%) | C (EC1.5>25 μM) | B (Fold Activation<350%)
Cc1cnc(NC(=O)c2ccnn3cc(-c4ccccc4C(F)(F)F)nc23)s1 [Compound 14] | C (EC1.5>25 μM) | B (Fold Activation<350%) | A (EC1.5<1 μM) | B (Fold Activation<350%)
O=C(Nc1ccnc2cc(-c3ccccc3C(F)(F)F)nn12)c1nccs1 [Compound 93] | C (EC1.5>25 μM) | B (Fold Activation<350%) | B (EC1.5 1−25 μM) | B (Fold Activation<350%)
O=C(Nc1ccnc2cc(-c3ccccc3C(F)(F)F)nn12)c1cccc(OC[C@H](O)CO)n1 [Compound 114] | A (EC1.5<1 μM) | A (Fold activation≧350%) | A (EC1.5<1 μM) | A (Fold activation≧350%)
